The results in this text go back to ChEMBL document CHEMBL4725261, “Design, synthesis and evaluation of carbamate-linked uridyl-based inhibitors of human ST6Gal I” (Bioorg Med Chem, 2020).

Assay [1] deals with T1, Beta-galactoside alpha-2,6-sialyltransferase 1 (Homo sapiens) (UniProt P15907).
T1 sequence (whole entry): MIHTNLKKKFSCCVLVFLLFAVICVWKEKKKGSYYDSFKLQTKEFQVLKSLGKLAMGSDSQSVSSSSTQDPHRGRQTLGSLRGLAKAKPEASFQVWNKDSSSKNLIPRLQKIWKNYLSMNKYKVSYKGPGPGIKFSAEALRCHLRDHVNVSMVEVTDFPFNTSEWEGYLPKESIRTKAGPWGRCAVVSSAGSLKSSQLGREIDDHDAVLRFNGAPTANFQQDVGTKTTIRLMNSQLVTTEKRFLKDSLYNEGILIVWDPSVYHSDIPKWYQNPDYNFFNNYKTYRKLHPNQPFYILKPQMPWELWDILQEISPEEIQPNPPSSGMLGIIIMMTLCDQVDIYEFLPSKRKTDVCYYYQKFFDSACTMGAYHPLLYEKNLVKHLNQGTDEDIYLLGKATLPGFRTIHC
The assay is described as follows: Inhibition of recombinant human N-terminal 6His-tagged ST6Gal-1 (Glu44 to Cys406 residues) assessed as CMP production at 10 uM using CMP-Neu5Ac as donar substrate and LacNAc as acceptor by CMP-Glo luminescence microplate reader assay relative to control.

In assay [2] the target is T1, Beta-galactoside alpha-2,6-sialyltransferase 1 (Homo sapiens). The assay is described as follows: Binding affinity to recombinant human N-terminal 6His-tagged ST6Gal-1 (Glu44 to Cys406 residues) assessed as Km/Ki ratio.

The inhibition is the drop in the measured response relative to a control, in per cent. As for `O=C(NC[C@H]1O[C@@H](n2ccc(=O)[nH]c2=O)[C@H](O)[C@@H]1O)OC(c1cccc(Oc2ccccc2)c1)P(=O)(O)O` (stereo in doubt; 28a-(l)), the inhibition in assay [1] amounted to 28.2%.
Consider `O=C(NC[C@H]1O[C@@H](n2ccc(=O)[nH]c2=O)[C@H](O)[C@@H]1O)OC(c1cccc(Oc2ccccc2)c1)P(=O)(O)O` (stereo in doubt; 28a-(s)), for which, in assay [1], the inhibition was 19.9%.
On the same count and under the same terms, the result for `O=C(NC[C@H]1O[C@@H](n2ccc(=O)[nH]c2=O)[C@H](O)[C@@H]1O)OC(c1ccc(F)c(Oc2ccccc2)c1)P(=O)(O)O` (stereo in doubt; 28b-(l)) reads 1.8%.
Still for that read-out and setting: the result for `O=C(NC[C@H]1O[C@@H](n2ccc(=O)[nH]c2=O)[C@H](O)[C@@H]1O)OC(c1ccc(F)c(Oc2ccccc2)c1)P(=O)(O)O` (stereo in doubt; 28b-(s)) reads 1.1%.
As to `O=C(NC[C@H]1O[C@@H](n2ccc(=O)[nH]c2=O)[C@H](O)[C@@H]1O)OC(c1ccc(F)cc1)P(=O)(O)O` (stereo in doubt; 28c-(l)), the Ratio in assay [2] came out at 32.5. Moreover, the inhibition in assay [1] was found to be 58.9%.
In the same order, the values of `O=C(NC[C@H]1O[C@@H](n2ccc(=O)[nH]c2=O)[C@H](O)[C@@H]1O)OC(c1ccc(F)cc1)P(=O)(O)O` (stereo in doubt; 28c-(s)) are 0.1 and 34.6%.
In the case of `O=C(NC[C@H]1O[C@@H](n2ccc(=O)[nH]c2=O)[C@H](O)[C@@H]1O)OC(c1cccc(F)c1)P(=O)(O)O` (stereo in doubt; 28d-(l)), the inhibition in assay [1] worked out at 18%.
Take `O=C(NC[C@H]1O[C@@H](n2ccc(=O)[nH]c2=O)[C@H](O)[C@@H]1O)OC(c1cccc(F)c1)P(=O)(O)O` (stereo in doubt; 28d-(s)): the Ratio in assay [2] came out at 1.9. The inhibition in assay [1] was 36.6%.
As to `CCCOc1cccc(C(OC(=O)NC[C@H]2O[C@@H](n3ccc(=O)[nH]c3=O)[C@H](O)[C@@H]2O)P(=O)(O)O)c1` (stereo in doubt; 28e-(l)), the Ratio in assay [2] turned out to be 1.8. Also, the inhibition in assay [1] is 30.9%.
`CCCOc1cccc(C(OC(=O)NC[C@H]2O[C@@H](n3ccc(=O)[nH]c3=O)[C@H](O)[C@@H]2O)P(=O)(O)O)c1` (stereo in doubt; 28e-(s)): the inhibition in assay [1] is 7.2%.
With `COc1cccc(C(OC(=O)NC[C@H]2O[C@@H](n3ccc(=O)[nH]c3=O)[C@H](O)[C@@H]2O)P(=O)(O)O)c1` (stereo in doubt; 28f-(l)), the inhibition in assay [1] worked out at 23.6%.
The same measure, in the same setting: the result for `COc1cccc(C(OC(=O)NC[C@H]2O[C@@H](n3ccc(=O)[nH]c3=O)[C@H](O)[C@@H]2O)P(=O)(O)O)c1` (stereo in doubt; 28f-(s)) reads 29.8%; that for `COc1ccc(C(OC(=O)NC[C@H]2O[C@@H](n3ccc(=O)[nH]c3=O)[C@H](O)[C@@H]2O)P(=O)(O)O)cc1` (stereo in doubt; 28g-(l)), 7.1%; that for `COc1ccc(C(OC(=O)NC[C@H]2O[C@@H](n3ccc(=O)[nH]c3=O)[C@H](O)[C@@H]2O)P(=O)(O)O)cc1` (stereo in doubt; 28g-(s)), 18.1%.
For the molecule `COc1ccc(C(OC(=O)NC[C@H]2O[C@@H](n3ccc(=O)[nH]c3=O)[C@H](O)[C@@H]2O)P(=O)(O)O)cc1OC1CCCC1` (stereo in doubt; 28h-(l)), in assay [1], the inhibition came to 7.9%.
As for `COc1ccc(C(OC(=O)NC[C@H]2O[C@@H](n3ccc(=O)[nH]c3=O)[C@H](O)[C@@H]2O)P(=O)(O)O)cc1OC1CCCC1` (stereo in doubt; 28h-(s)), the inhibition in assay [1] was found to be 12.7%.
Take `O=C(NC[C@H]1O[C@@H](n2ccc(=O)[nH]c2=O)[C@H](O)[C@@H]1O)OC(c1ccc(OC2CCCC2)cc1)P(=O)(O)O` (stereo in doubt; 28i-(l)): in assay [2], the Ratio worked out at 3.2. In assay [1], the inhibition was 78%.
For `O=C(NC[C@H]1O[C@@H](n2ccc(=O)[nH]c2=O)[C@H](O)[C@@H]1O)OC(c1ccc(OC2CCCC2)cc1)P(=O)(O)O` (stereo in doubt; 28i-(s)), the Ratio in assay [2] was determined as 0.7. For the same molecule, in assay [1], the inhibition was 19%.
For the molecule `O=C(NC[C@H]1O[C@@H](n2ccc(=O)[nH]c2=O)[C@H](O)[C@@H]1O)OC(c1ccccc1)P(=O)(O)O` (stereo in doubt; 28j-(l)), in assay [1], the inhibition worked out at 15.2%.
Same read-out and setting: the result for `O=C(NC[C@H]1O[C@@H](n2ccc(=O)[nH]c2=O)[C@H](O)[C@@H]1O)OC(c1ccccc1)P(=O)(O)O` (stereo in doubt; 28j-(s)) reads 7.1%.
In the case of `O=C(NC[C@H]1O[C@@H](n2ccc(=O)[nH]c2=O)[C@H](O)[C@@H]1O)OC(c1cc2ccccc2s1)P(=O)(O)O` (stereo in doubt; 28k-(l)), in assay [1], the inhibition was 13.2%.
With `O=C(NC[C@H]1O[C@@H](n2ccc(=O)[nH]c2=O)[C@H](O)[C@@H]1O)OC(c1cc2ccccc2s1)P(=O)(O)O` (stereo in doubt; 28k-(s)), the Ratio in assay [2] came to 4.4. The inhibition in assay [1] was determined as 66.4%.
Consider `O=C(NC[C@H]1O[C@@H](n2ccc(=O)[nH]c2=O)[C@H](O)[C@@H]1O)OC(c1csc2ccccc12)P(=O)(O)O` (stereo in doubt; 28l-(l)), for which the inhibition in assay [1] is 6.9%.
The same measure, in the same setting: the result for `O=C(NC[C@H]1O[C@@H](n2ccc(=O)[nH]c2=O)[C@H](O)[C@@H]1O)OC(c1csc2ccccc12)P(=O)(O)O` (stereo in doubt; 28l-(s)) reads 5.9%; that for `Nc1ccn([C@@H]2O[C@H](CNC(=O)OC(c3cccc(Oc4ccccc4)c3)P(=O)(O)O)[C@@H](O)[C@H]2O)c(=O)n1` (stereo in doubt; 30-(l)), 6.3%; that for `Nc1ccn([C@@H]2O[C@H](CNC(=O)OC(c3cccc(Oc4ccccc4)c3)P(=O)(O)O)[C@@H](O)[C@H]2O)c(=O)n1` (stereo in doubt; 30-(s)), 2.2%.
